In patent publication US20230303494A1, “BENZYLAMINE DERIVATIVE, PREPARATION METHOD THEREFOR AND USE THEREOF” (ACADEMY OF MILITARY MEDICAL SCIENCES, priority 2020, published 2023):

Key:
[1] = tested on: Human peripheral blood mononuclear cells (PBMCs); assay: Promotion of IFN-γ secretion in PBMCs treated with anti-CD3/anti-CD28 and PDL1/FC fusion protein (ELISA); format: cell-based; conditions: for IFN-γ / Increase rate of IFN-γ expression vs PDL1 treatment: hPD-L1 10.0 μg/mL, 72 h
Description: Human peripheral blood mononuclear cells (PBMCs) were isolated from 10-15 ml of whole blood of healthy volunteers using experimental human lymphocyte separation medium (TBD sciences). The cells were washed twice with normal saline and resuspended in buffer (RPMI 1640 complete medium containing 10% FBS, SIGMA) to count the cell density. The PBMCs were dispersed and placed in a 96-well plate, 1×10^5 cells and 50 μL of buffer per well. Anti-CD3 antibody (SIGMA) and anti-CD28 antibody (SIGMA) were mixed at a ratio of 1:1 to obtain an antibody mixture. The antibody mixture was added to the wells to ensure that the final concentration of antibody was 0.8 μg/mL. At the same time, PDL1/FC fusion protein (SINO BIOLOGICAL) was added to reach a final concentration of 10.0 μg/mL, and the compound to be tested was diluted with buffer and added to the wells to reach a final concentration of 0.1 μM or 1 μM. The mixed system was incubated at 37° C. and 5% CO2 for 72 h. The supernatant was collected, and the expression level of IFN-γ was measured by ELISA MAXTM Human IFN-γ Standard Kit (BioLegend), and the increase rate was calculated. Increase rate (%)=(expression amount of compound treatment−expression amount of PDL1 treatment)/expression amount of PDL1 treatment×100%

PBMCs cells = assay: Cytotoxicity, Cell Titer-Glo, PBMCs cells; format: cell-based; conditions: Homo sapiens, PBMC; 24 hours incubation; read-out: PBMCs cells IC50 (cell death)
Description: (§1) The raji (ATCC), raw (ATCC) and PBMCs cells were suspended in buffer (RPMI 1640 complete medium containing 10% FBS, SIGMA), respectively, and the cell density was counted. The cells were transferred to wells of a 96-well plate, ensuring that the cell density of each well was 1×10^4 cells/well, and incubated for 24 hours at 37° C., 5% CO2 with compounds at different concentrations (100 μM, 50 μM, 25 μM, 12.5 μM, 6.25 μM and 3.125 μM) and buffer control solution (0.2% DMSO). To each well, 100 μL of Cell Titer-Glo Luminescent Solution (Promega) was added and shaken for 10 minutes at room temperature, and then GloMax® Navigator System was used to measure the system […], and the cell death rate was calculated. Cell death rate (%)=(1−RLUcompound/RLUcontrol)×100%, and IC50 was determined from the inhibition curve.

human PD-L1 = human PD-L1 (Homo sapiens (Human), UniProt Q9NZQ7); assay: Biofilm interferometry (BLI, OctetRED) binding to human PD-L1/AVI; conditions: 1:1 binding model
human PD-L1, sequence (Q9NZQ7 19-290): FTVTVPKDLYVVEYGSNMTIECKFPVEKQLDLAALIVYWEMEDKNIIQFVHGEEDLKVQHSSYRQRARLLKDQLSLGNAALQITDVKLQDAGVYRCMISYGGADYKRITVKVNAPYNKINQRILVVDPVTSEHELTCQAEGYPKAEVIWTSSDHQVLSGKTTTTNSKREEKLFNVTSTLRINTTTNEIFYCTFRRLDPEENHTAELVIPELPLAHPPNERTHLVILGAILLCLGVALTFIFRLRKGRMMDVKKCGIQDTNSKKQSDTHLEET
Description: In the experiment, the instrument OctectRED of Fortebio Company based on biofilm interferometry (BLI) technology was used to capture human PD-L1/AVI with SA chips. The concentration of antigen PD-L1/AVI was diluted to 10 μg/mL with running buffer (PBS+0.02% Tween-20+2% DMSO), and the loading time was 300 s; similarly, the analyte was also diluted to the corresponding concentrations (20 nM, 10 nM, 5 nM, 2.5 nM, 1.25 nM, 0.625 nM, 0.3125 nM) with running buffer in gradient manner, and a buffer blank control group was set at the same time. The binding time of human PD-L1/AVI to the analyte was 180 s, and the dissociation time was 300 s; the chip was regenerated with 10 mM glycine HCl, pH 1.7 solution and repeated 5-second pulse for 3 times. The data were fitted to a 1:1 binding model to determine the equilibrium dissociation constant KD.

[2] = tested on: colon cancer cell line MC38 (mouse PD-L1 knockout, human PD-L1 knockin); assay: Antitumor efficacy in vivo in PD-1 humanized mice inoculated with PD-L1 humanized MC38 cells; conditions: 15 mg/kg intraperitoneal injection once per day for three weeks, compared with the control group
Text: Based on the mechanism that PD-1/PD-L1 inhibitors activated the immune system to achieve anti-tumor effects by interfering with the interaction of PD-1/PD-L1, the animal models used in vivo efficacy experiments must be animals with healthy immune systems; in addition, the species differences of PD-1/PD-L1 between animals and humans are considered. Therefore, the in vivo antitumor pharmacodynamics evaluation model of the present invention adopted PD-1 humanized mice, and the inoculated tumors were PD-L1 humanized tumor cells. This evaluation model could more accurately reflect the in vivo efficacy of the compound.
24 PD-1 humanized mice (full name of strain: C57BL/6J-Pdcd1^em1(hPDCD1)/Smoc) about 6 weeks old were purchased from Shanghai Southern Model Animal Center, and placed in SPF grade animal breeding room for observation for 1 to 2 weeks. After the animals were adapted to the raising environment, the genetically engineered colon cancer cell line MC38 (mouse PD-L1 knockout, human PD-L1 knockin) was subcutaneously inoculated to the mice near the hind leg groin, and the inoculated cell volume was 1×10^6 cells per mouse. […] During the experiment, the tumor size and mouse body weight were measured and recorded, and the mice were sacrificed at the end of the experiment. […]

Raw cells = assay: Cytotoxicity, Cell Titer-Glo, Raw cells; format: cell-based; conditions: 24 hours incubation; read-out: Raw cells IC50 (cell death)
Description: as §1

PD-1/PD-L1 interaction = PD-1/PD-L1 interaction (Homo sapiens (Human), UniProt Q9NZQ7); assay: PD-1/PD-L1 Binding Assay kit (Cisbio), HTRF; conditions: 8-10 concentrations, read-out: IC50 of inhibition of PD-1/PD-L1 interaction
PD-1/PD-L1 interaction, sequence (Q9NZQ7 19-238): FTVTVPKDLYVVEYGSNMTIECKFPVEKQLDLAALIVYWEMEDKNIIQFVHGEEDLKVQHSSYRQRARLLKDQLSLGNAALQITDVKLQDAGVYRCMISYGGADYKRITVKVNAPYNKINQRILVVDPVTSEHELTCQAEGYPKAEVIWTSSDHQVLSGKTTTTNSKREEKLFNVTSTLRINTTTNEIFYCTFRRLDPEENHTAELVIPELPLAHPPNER

Raji cells = assay: Cytotoxicity, Cell Titer-Glo, Raji cells; format: cell-based; conditions: Homo sapiens, 24 hours incubation, read-out: Raji cells IC50 (cell death)
Description: as §1

Kd (human PD-L1): 0.0162 nM
kon (human PD-L1): 2.17e+06 M⁻¹ s⁻¹
koff (human PD-L1; read-out: Kdis): 3.53e-05 s⁻¹
IC50 (PD-1/PD-L1 interaction): 12 nM
SMILES: Cc1cc(CN[C@H](CO)C(=O)O)c(OCc2cncc(C#N)c2)cc1NCc1cccc(-c2ccccc2)c1C [Compound 5]
IFN-γ ([1]; compound 0.1 μM): 38300 pg/mL
Increase rate of IFN-γ expression vs PDL1 treatment ([1]; compound 0.1 μM): 79.8%
IFN-γ ([1]; compound 1.0 μM): 42400 pg/mL
Increase rate of IFN-γ expression vs PDL1 treatment ([1]; compound 1.0 μM): 99.1%
effect on promoting IFN-γ secretion at the cellular level ([1]; in words, better than that of BMS202): significant effect on promoting IFN-γ secretion
IC50 (PBMCs cells): > 100000 nM
growth of tumors [2]: significantly inhibit the growth of tumors
IC50 (Raw cells): > 100000 nM
IC50 (Raji cells): > 100000 nM
